The target in one series is JAK3 (Homo sapiens (Human), UniProt P52333). Kind of series: Biochemical JAK3 kinase assay (LanthaScreen). The note with it: for JAK3 (pKi)-JAK1 (pKi): selectivity JAK3 over JAK1, difference of pKi. The procedure, abridged:
(§1)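 GST-JAK + GFP-STAT1 peptide, HEPES pH 7.5/MgCl2/EGTA/Brij-35 buffer; cpd preincubation 1 h RT; ATP start, 1 h RT; stop with 10 mM EDTA + 2 nM Tb-anti-pSTAT1; TR-FRET 520/495. 4-parameter IC50 → pKi (Cheng-Prusoff).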
A general note: Time-resolved FRET reads energy transfer from a long-lived donor to a nearby acceptor.

In series [1] the test system is IL-2 stimulated STAT5 phosphorylation in Tall-1 human T cell line (JAK3). Kind of series: Cellular JAK3 potency assay: inhibition of IL-2 stimulated pSTAT5 in Tall-1 T cells. The class given is cell-based. The note with it: IL-2 stimulated pSTAT5, Tall-1 T cells. The procedure, abridged:
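AlphaLISA SureFire Ultra measures STAT5 Tyr694/699 phosphorylation in lysed Tall-1 human T cells. Cells were exposed to compound for 1 h at 37 °C before a 30 min IL-2 challenge (300 ng/ml final). Values are pIC50 means with standard deviation from signal-versus-concentration curves.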

The next series deals with Tyk2 (Homo sapiens (Human), UniProt P29597). Kind of series: Biochemical Tyk2 kinase assay (LanthaScreen). The procedure, abridged:
as §1

A further series deals with JAK1 (Homo sapiens (Human), UniProt P23458). Kind of series: Biochemical JAK1 kinase assay (LanthaScreen). In a few lines: as §1
Chain of JAK1 (P23458 whole entry): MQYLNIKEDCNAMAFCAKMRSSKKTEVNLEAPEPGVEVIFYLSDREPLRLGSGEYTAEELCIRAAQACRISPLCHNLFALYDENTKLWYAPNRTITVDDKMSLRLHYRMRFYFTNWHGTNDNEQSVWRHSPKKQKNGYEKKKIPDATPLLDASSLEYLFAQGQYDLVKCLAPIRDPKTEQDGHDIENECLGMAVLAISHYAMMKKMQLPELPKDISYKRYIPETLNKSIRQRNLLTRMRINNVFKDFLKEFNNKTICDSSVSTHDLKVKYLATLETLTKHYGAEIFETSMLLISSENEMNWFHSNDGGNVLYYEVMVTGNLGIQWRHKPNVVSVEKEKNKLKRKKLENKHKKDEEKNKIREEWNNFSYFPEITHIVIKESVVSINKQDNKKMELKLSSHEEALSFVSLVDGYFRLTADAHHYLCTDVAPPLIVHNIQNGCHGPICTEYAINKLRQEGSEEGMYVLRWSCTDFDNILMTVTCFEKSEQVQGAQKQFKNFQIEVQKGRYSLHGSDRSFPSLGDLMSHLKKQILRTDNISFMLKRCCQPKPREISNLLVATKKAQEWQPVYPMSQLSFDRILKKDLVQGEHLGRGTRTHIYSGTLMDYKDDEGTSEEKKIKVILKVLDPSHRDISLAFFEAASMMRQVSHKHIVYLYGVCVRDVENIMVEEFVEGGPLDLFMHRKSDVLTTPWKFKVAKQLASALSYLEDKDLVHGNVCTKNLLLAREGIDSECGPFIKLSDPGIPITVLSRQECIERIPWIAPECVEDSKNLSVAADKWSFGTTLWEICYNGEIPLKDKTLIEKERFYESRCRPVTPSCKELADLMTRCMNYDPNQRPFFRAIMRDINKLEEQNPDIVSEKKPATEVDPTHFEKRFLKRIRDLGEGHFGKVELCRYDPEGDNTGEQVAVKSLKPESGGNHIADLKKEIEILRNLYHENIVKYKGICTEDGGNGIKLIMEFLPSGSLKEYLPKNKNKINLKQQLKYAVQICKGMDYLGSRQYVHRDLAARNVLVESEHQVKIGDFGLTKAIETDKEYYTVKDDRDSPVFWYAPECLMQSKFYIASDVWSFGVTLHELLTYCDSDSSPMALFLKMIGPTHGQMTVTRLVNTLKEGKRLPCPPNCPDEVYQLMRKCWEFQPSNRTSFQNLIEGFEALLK
The target of another series is JAK2 (Homo sapiens (Human), UniProt O60674). Kind of series: Biochemical JAK2 kinase assay (LanthaScreen). The procedure, abridged:
as §1

The subject of the next series is Caco-2 cell monolayers. Kind of series: Caco-2 permeation assay. The class given is in vitro ADME. The settings on record: 5 μM, A-B direction, with Verapamil (25 μM). On the procedure: Assay 4: Caco-2 Permeation Assay
The Caco-2 permeation assay was performed to model the ability of test compounds to pass through the intestine and get into the blood stream after oral administration. The rate at which test compounds in solution permeate a cell monolayer designed to mimic the tight junction of human small intestinal monolayers was determined.
CacoReady 24-well transwell plates were obtained from ADMEcell (Alameda, Calif.). The compounds were evaluated at a concentration of 5 μM from 10 mM DMSO stock solutions in duplicate (n=2). The passive permeability of the compounds tested was evaluated using Caco-2 cell monolayers along with Verapamil (25 μM) to inhibit P-gp transport proteins in the apical to basolateral (A-B) direction. The experiment was conducted in a 37° C., 5% CO2 incubator. Caco-2 culture media consisted of standard filtered DMEM, FCS 10%, L-Glutamine 1% and PenStrep 1%. Basal assay plate was prepared by adding 750 μL of transport buffer to A-B wells. A CacoReady™ plate was prepared by removing the Caco-2 media from the apical wells and replacing with fresh transport media (200 μL repeated for a total of 3 washes). Blank media (200 μL) was then replaced with diluted compound for A-B wells. To begin the incubation, the basal plate was removed from the incubator and the apical section was added on top of it. Samples (40 μL) were collected from the apical and basal compartments for time zero (t0). Samples were collected again after 120 minutes (t120) from the apical and basal compartments. All samples were diluted and prepared for bioanalysis by LC-MS/MS. The permeation coefficient (Kp, mean A to B+ Verapamil Papparent) in cm/sec was calculated as dQ (flux)/(dt×Area×concentration).
In this assay, a Kp value less than about 5×10^−6 cm/sec is considered favorable to minimize systemic exposure and target the colon. A Kp value less than about 10×10^−6 cm/sec may also be sufficient to minimize systemic exposure and target the colon.
A general note: Caco-2 cells form a polarised layer with tight junctions and transporters.

This note sets out measurements from patent US11697648B2, “Fused pyrimidine pyridinone compounds as JAK inhibitors” (THERAVANCE BIOPHARMA R&D IP, LLC, priority 2019, dated 2023).

Molecules are shown by their SMILES.

Chain of Tyk2 (P29597 whole entry): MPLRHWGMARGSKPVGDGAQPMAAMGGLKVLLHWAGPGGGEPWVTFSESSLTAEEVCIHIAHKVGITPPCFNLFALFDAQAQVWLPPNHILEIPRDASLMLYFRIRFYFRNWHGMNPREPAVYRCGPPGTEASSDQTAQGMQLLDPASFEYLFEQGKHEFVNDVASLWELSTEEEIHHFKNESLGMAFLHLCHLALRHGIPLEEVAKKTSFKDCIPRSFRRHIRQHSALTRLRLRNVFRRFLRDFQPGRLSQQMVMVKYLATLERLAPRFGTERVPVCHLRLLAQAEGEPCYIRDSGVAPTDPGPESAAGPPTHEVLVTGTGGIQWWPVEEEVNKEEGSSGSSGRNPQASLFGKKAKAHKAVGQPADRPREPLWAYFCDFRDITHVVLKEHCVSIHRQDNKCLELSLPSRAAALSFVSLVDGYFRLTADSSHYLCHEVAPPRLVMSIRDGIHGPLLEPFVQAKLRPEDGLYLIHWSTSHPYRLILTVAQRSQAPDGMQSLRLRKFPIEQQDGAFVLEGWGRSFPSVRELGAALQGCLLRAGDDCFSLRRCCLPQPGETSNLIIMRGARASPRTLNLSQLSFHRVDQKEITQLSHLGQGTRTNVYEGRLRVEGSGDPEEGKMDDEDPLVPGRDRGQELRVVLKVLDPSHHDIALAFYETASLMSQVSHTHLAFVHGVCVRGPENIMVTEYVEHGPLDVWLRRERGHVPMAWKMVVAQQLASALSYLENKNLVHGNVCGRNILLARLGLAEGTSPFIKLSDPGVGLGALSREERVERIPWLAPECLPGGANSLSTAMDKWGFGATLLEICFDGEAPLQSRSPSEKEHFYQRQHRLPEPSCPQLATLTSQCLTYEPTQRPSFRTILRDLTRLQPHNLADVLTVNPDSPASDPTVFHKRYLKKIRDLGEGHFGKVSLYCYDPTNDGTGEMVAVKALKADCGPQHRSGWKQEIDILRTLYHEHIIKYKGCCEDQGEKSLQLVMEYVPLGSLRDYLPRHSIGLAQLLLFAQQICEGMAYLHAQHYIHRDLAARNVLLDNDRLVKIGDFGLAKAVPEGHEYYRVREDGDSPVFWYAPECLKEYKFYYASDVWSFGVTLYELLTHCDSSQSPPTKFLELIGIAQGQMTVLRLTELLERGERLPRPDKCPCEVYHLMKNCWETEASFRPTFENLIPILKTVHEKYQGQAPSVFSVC
Chain of JAK3 (P52333 whole entry): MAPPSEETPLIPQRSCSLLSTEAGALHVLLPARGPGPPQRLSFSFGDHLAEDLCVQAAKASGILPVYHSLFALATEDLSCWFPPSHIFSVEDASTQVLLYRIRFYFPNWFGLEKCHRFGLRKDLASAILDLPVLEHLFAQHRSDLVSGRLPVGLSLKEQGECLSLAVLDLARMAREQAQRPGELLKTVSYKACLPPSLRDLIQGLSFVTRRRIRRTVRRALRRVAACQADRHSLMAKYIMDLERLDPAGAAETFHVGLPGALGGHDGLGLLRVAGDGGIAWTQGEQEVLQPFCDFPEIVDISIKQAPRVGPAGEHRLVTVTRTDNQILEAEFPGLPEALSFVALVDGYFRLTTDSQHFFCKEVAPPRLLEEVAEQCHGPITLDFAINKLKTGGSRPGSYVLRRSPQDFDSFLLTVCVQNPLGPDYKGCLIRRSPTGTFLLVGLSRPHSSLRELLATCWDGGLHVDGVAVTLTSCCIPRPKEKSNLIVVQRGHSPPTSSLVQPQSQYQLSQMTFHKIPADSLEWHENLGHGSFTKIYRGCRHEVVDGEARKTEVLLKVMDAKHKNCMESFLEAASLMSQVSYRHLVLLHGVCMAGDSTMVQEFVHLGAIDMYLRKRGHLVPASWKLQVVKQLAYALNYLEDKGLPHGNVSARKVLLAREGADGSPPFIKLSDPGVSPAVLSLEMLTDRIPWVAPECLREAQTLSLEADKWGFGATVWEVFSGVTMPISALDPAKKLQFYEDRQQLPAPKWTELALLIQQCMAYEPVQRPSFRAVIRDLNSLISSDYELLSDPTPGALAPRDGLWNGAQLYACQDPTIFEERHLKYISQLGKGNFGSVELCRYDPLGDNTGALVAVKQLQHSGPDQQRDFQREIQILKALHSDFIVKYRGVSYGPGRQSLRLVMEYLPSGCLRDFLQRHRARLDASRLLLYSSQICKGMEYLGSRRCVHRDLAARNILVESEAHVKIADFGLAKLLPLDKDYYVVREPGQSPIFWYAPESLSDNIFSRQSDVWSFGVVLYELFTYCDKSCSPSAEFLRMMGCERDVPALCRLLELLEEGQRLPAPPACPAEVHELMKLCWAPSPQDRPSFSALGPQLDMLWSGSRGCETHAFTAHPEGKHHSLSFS
Chain of JAK2 (O60674 whole entry): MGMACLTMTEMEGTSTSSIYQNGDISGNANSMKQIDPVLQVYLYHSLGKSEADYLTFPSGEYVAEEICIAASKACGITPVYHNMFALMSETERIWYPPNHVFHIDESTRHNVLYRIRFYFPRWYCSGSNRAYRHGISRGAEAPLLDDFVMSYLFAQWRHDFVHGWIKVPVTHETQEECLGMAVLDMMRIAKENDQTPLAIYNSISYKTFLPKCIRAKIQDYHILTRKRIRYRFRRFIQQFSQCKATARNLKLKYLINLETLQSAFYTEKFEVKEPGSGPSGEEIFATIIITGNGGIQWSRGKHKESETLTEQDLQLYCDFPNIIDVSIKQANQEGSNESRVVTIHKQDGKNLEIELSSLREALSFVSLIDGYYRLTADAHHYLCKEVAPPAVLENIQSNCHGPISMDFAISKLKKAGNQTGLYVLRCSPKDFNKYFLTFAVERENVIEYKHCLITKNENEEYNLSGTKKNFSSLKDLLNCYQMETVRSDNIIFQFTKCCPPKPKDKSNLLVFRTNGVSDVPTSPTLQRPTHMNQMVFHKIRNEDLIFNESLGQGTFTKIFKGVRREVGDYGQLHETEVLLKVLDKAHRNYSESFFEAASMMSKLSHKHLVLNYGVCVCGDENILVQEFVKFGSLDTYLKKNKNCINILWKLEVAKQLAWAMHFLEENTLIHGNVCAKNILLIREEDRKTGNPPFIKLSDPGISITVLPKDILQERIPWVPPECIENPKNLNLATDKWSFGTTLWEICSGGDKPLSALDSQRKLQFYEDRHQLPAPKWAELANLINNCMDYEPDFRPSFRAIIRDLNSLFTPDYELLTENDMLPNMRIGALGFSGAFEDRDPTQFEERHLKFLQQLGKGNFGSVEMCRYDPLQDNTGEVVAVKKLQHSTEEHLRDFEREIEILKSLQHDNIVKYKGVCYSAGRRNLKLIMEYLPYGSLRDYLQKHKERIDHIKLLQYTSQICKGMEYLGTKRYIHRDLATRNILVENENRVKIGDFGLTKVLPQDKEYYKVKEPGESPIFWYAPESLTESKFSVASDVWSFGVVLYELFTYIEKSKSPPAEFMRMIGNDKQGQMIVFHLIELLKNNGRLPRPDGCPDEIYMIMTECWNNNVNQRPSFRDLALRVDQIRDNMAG

Turning to `C=CC(=O)N1CC(CCn2c(=O)ccc3cnc(Nc4ccc(N5CCN(C(C)=O)C[C@H]5C)cc4)nc32)C1` [Example 10, (R)-2-((4-(4-acetyl-2-methylpiperazin-1-yl)phenyl)amino)-8-(2-(1-acryloylazetidin-3-yl)ethyl)pyrido[2,3-d]pyrimidin-7(8H)-one], at JAK3, the “JAK 3 (pKi)” value was “A (A represents a pKi value≥10 (Ki≤0.1 nM))” and the “JAK3 (pKi)-JAK1 (pKi)” value was “A (A represents a value of 3 or above)”. Besides, the “Tall-1 (pIC50)” value in series [1] is “A (A represents a pIC50 value≥7.5 (IC50≤32 nM))”. Besides, at Tyk2, the “Tyk 2 (pKi)” value is on record as “E (E represents a pKi value of 7 or below (Ki of 100 nM or above))”. Also, the “JAK 1 (pKi)” value at JAK1 is recorded as “E (E represents a pKi value of 7 or below (Ki of 100 nM or above))”. Further, the “JAK 2 (pKi)” value on JAK2 is “E (E represents a pKi value of 7 or below (Ki of 100 nM or above))”. In the series on Caco-2 cell monolayers, the “Caco Kp” value was “A (A represents a value below 5×10^−6 cm/sec)”.
In the case of `C=CC(=O)N1CC(CCn2c(=O)ccc3cnc(Nc4ccc(N5CCN(C)CC5)cn4)cc32)C1` [Example 14], on JAK3, the “JAK 3 (pKi)” value is “B (B represents pKi value between 9 and 10 (Ki between 1 nM and 0.1 nM))”; the “JAK3 (pKi)-JAK1 (pKi)” value is on record as “A (A represents a value of 3 or above)”. Moreover, the “Tall-1 (pIC50)” value in series [1] is recorded as “A (A represents a pIC50 value≥7.5 (IC50≤32 nM))”. In addition, the “Tyk 2 (pKi)” value at Tyk2 is given as “E (E represents a pKi value of 7 or below (Ki of 100 nM or above))”. The “JAK 1 (pKi)” value at JAK1 is recorded as “E (E represents a pKi value of 7 or below (Ki of 100 nM or above))”. The “JAK 2 (pKi)” value at JAK2 is “E (E represents a pKi value of 7 or below (Ki of 100 nM or above))”. Also, the “Caco Kp” value in the series with Caco-2 cell monolayers is recorded as “A (A represents a value below 5×10^−6 cm/sec)”.
`C=CC(=O)N1CCN(CCn2c(=O)ccc3cnc(Nc4cnn(C)c4)nc32)CC1` [Example 16]: on JAK3, the “JAK 3 (pKi)” value was “B (B represents pKi value between 9 and 10 (Ki between 1 nM and 0.1 nM))”; the “JAK3 (pKi)-JAK1 (pKi)” value is on record as “A (A represents a value of 3 or above)”. Besides, in series [1], the “Tall-1 (pIC50)” value is “C (C represents a pIC50 value between 6 and 6.7 (IC50 between 1 μM and 200 nM))”. Further, the “Tyk 2 (pKi)” value on Tyk2 is “E (E represents a pKi value of 7 or below (Ki of 100 nM or above))”. Moreover, at JAK1, the “JAK 1 (pKi)” value was “E (E represents a pKi value of 7 or below (Ki of 100 nM or above))”. Besides, the “JAK 2 (pKi)” value on JAK2 is recorded as “E (E represents a pKi value of 7 or below (Ki of 100 nM or above))”. In addition, the “Caco Kp” value with Caco-2 cell monolayers was “A (A represents a value below 5×10^−6 cm/sec)”.
`C=CC(=O)N1CC(CCn2c(=O)ccc3cnc(Nc4cnn(CC(F)F)c4)nc32)C1` [Example 20]: at JAK3, the “JAK 3 (pKi)” value was “B (B represents pKi value between 9 and 10 (Ki between 1 nM and 0.1 nM))”; the “JAK3 (pKi)-JAK1 (pKi)” value is given as “A (A represents a value of 3 or above)”. In addition, the “Tall-1 (pIC50)” value in series [1] was “C (C represents a pIC50 value between 6 and 6.7 (IC50 between 1 μM and 200 nM))”. For the same molecule, the “JAK 1 (pKi)” value on JAK1 is given as “E (E represents a pKi value of 7 or below (Ki of 100 nM or above))”. Also, the “Caco Kp” value with Caco-2 cell monolayers is “B (B represents a value between 5×10^−6 and 10×10^−6 cm/sec)”.
As for `C=CC(=O)N1CC(CCn2c(=O)ccc3cnc(Nc4cccc(N5CCOCC5)c4)nc32)C1` [Example 28], on JAK3, the “JAK 3 (pKi)” value was “B (B represents pKi value between 9 and 10 (Ki between 1 nM and 0.1 nM))”; the “JAK3 (pKi)-JAK1 (pKi)” value is “A (A represents a value of 3 or above)”. In addition, the “Tall-1 (pIC50)” value in series [1] was “C (C represents a pIC50 value between 6 and 6.7 (IC50 between 1 μM and 200 nM))”. In addition, the “JAK 1 (pKi)” value on JAK1 is recorded as “E (E represents a pKi value of 7 or below (Ki of 100 nM or above))”. For the same molecule, the “Caco Kp” value in the series on Caco-2 cell monolayers was “C (C represents a value between 10×10^−6 and 30×10^−6 cm/sec)”.
Take `C=CC(=O)N1CC(CCn2c(=O)ccc3cnc(Nc4cnn(CCO)c4)nc32)C1` [Example 35]: on JAK3, the “JAK 3 (pKi)” value is “B (B represents pKi value between 9 and 10 (Ki between 1 nM and 0.1 nM))”; the “JAK3 (pKi)-JAK1 (pKi)” value is on record as “A (A represents a value of 3 or above)”. Besides, the “Tall-1 (pIC50)” value in series [1] was “C (C represents a pIC50 value between 6 and 6.7 (IC50 between 1 μM and 200 nM))”. Also, the “JAK 1 (pKi)” value at JAK1 is “E (E represents a pKi value of 7 or below (Ki of 100 nM or above))”. Also, in the series on Caco-2 cell monolayers, the “Caco Kp” value is given as “A (A represents a value below 5×10^−6 cm/sec)”.
Take `C=CC(=O)N1CC(CCn2c(=O)ccc3cnc(Nc4cnn(C(F)F)c4)nc32)C1` [Example 36]: on JAK3, the “JAK 3 (pKi)” value is “B (B represents pKi value between 9 and 10 (Ki between 1 nM and 0.1 nM))”; the “JAK3 (pKi)-JAK1 (pKi)” value is “A (A represents a value of 3 or above)”. Besides, in series [1], the “Tall-1 (pIC50)” value is “C (C represents a pIC50 value between 6 and 6.7 (IC50 between 1 μM and 200 nM))”. Besides, the “JAK 1 (pKi)” value at JAK1 was “E (E represents a pKi value of 7 or below (Ki of 100 nM or above))”. Also, in the series with Caco-2 cell monolayers, the “Caco Kp” value was “C (C represents a value between 10×10^−6 and 30×10^−6 cm/sec)”.
As for `C=CC(=O)N1CC(CCn2c(=O)ccc3cnc(Nc4ccc(N5CCOCC5=O)cc4)nc32)C1` [Example 47], on JAK3, the “JAK 3 (pKi)” value was “B (B represents pKi value between 9 and 10 (Ki between 1 nM and 0.1 nM))”; the “JAK3 (pKi)-JAK1 (pKi)” value is “A (A represents a value of 3 or above)”. In series [1], the “Tall-1 (pIC50)” value was “C (C represents a pIC50 value between 6 and 6.7 (IC50 between 1 μM and 200 nM))”. The “JAK 1 (pKi)” value at JAK1 is “E (E represents a pKi value of 7 or below (Ki of 100 nM or above))”. The “Caco Kp” value in the series on Caco-2 cell monolayers is “A (A represents a value below 5×10^−6 cm/sec)”.
For the molecule `C=CC(=O)N1CC(CCn2c(=O)ccc3cnc(Nc4ccc(N5CCSCC5)nc4)nc32)C1` [Example 54], at JAK3, the “JAK 3 (pKi)” value was “B (B represents pKi value between 9 and 10 (Ki between 1 nM and 0.1 nM))”; the “JAK3 (pKi)-JAK1 (pKi)” value is given as “A (A represents a value of 3 or above)”. The “Tall-1 (pIC50)” value in series [1] was “C (C represents a pIC50 value between 6 and 6.7 (IC50 between 1 μM and 200 nM))”. For the same molecule, the “JAK 1 (pKi)” value at JAK1 is listed as “E (E represents a pKi value of 7 or below (Ki of 100 nM or above))”. For the same molecule, the “Caco Kp” value in the series on Caco-2 cell monolayers is “C (C represents a value between 10×10^−6 and 30×10^−6 cm/sec)”.
With `C=CC(=O)N1CC(CCn2c(=O)ccc3cnc(Nc4ccc(C5CCN(C)CC5)cc4)nc32)C1` [Example 77], at JAK3, the “JAK 3 (pKi)” value was “B (B represents pKi value between 9 and 10 (Ki between 1 nM and 0.1 nM))”; the “JAK3 (pKi)-JAK1 (pKi)” value was “A (A represents a value of 3 or above)”. In series [1], the “Tall-1 (pIC50)” value is “B (B represents a pC50 value between 6.7 (included) and 7.5 (IC50 between 200 nM and 32 nM))”. The “JAK 1 (pKi)” value at JAK1 is “E (E represents a pKi value of 7 or below (Ki of 100 nM or above))”. For the same molecule, the “Caco Kp” value in the series with Caco-2 cell monolayers was “A (A represents a value below 5×10^−6 cm/sec)”.
Take `C=CC(=O)N1CC(CCn2c(=O)ccc3cnc(Nc4cnn(C5CCOCC5)c4)nc32)C1` [Example 81]: on JAK3, the “JAK 3 (pKi)” value is “B (B represents pKi value between 9 and 10 (Ki between 1 nM and 0.1 nM))”; the “JAK3 (pKi)-JAK1 (pKi)” value is “A (A represents a value of 3 or above)”. In series [1], the “Tall-1 (pIC50)” value was “B (B represents a pC50 value between 6.7 (included) and 7.5 (IC50 between 200 nM and 32 nM))”. Besides, on JAK1, the “JAK 1 (pKi)” value was “E (E represents a pKi value of 7 or below (Ki of 100 nM or above))”. The “Caco Kp” value in the series with Caco-2 cell monolayers is “A (A represents a value below 5×10^−6 cm/sec)”.
